Data published in article PMC12645191, “Dicarboxylate and dicarboxylic acid appended supramolecular self-associating amphiphiles as antimicrobial agents against high priority bacterial pathogens” (Organic & Biomolecular Chemistry, 2025).
Several values for one entry are separate records, joined by “and”; a condition that tells them apart may be missing. Equal entries are not always repeated. Where two headings read alike, the source gives them in different places.

Experiments:
[1] = test system: E. faecalis NCTC 775; test: inhibition of bacterial growth, OD600 after 20 h; type: cell-based, Enterococcus faecalis; conditions: SSA 5.0 mM, 2.5% ethanol, negative = enhanced growth
Protocol: (§1) With the self-associative properties of 1–10 established, the antimicrobial activity of these SSAs were determined against a panel of clinically relevant, high-priority pathogens including: P. aeruginosa PAO1; Klebsiella pneumonia (K. pneumoniae) M6; E. coli NCTC 12923; Acinetobacter baumannii (A. baumannii) ATCC 17978; S. aureus ATCC 9144; Enterococcus faecalis (E. faecalis) NCTC 775; and Enterococcus faecium (E. faecium) NCTC 12204. […] However, it should be noted that the SSA stock solution was prepared in a H2O 5% EtOH solution, to ensure that the SSA aggregates formed were in line with those characterised within the scope of the SSA self-association studies.
(§2) Section 3: Biological methods
(§3) These methods were taken directly from UK Health and Security Office (UKHSA) standard […]
(§4) Preparation of Luria Broth media (LB): Yeast extract (5.0 g), tryptone (10.0 g) and sodium chloride (10.0 g) were dissolved in dH₂O (1.0 L) then divided into bottles and autoclaved.
(§5) Preparation of Luria Broth (LB) agar plates: Agar (6.0 g) was added to LB (400 mL) and autoclaved. Once cool, the LB agar was poured into sterile petri dishes under sterile conditions and allowed to set. LB plates were stored at 4 °C until use.
(§6) Preparation of bacterial plates: Sterile LB agar plates were streaked using streaked using the desired bacteria i) Pseudomonas aeruginosa (P.aeruginosa) PAO1, ii) Klebsiella pneumoniae (K. pneumoniae) M6 iii) E. coli NCTC 12923 and iv) Acinetobacter baumannii (A. baumannii) ATCC 17978 and Gram-positive i) Staphylococcus aureus (S. aureus) ATCC 9144 ii) Enterococcus faecalis (E. faecalis) NCTC 775 and iii) Enterococcus faecium (E. faecium ) NCTC 12204, then incubated at 37 °C overnight.
(§7) Preparation of Inoculum: An initial culture was made up by inoculating LB media (5 mL) with a single colony of bacteria under sterile conditions and incubated at 37 °C with shaking overnight. The following day, overnight bacterial cultures were subcultured into fresh LB medium to a starting OD600 of 0.01.
(§8) Preparation of 96 well microplate for MIC50: The 1:100 cell suspension (150 µL) was dispensed into individual wells under sterile conditions. SSAs (30 µL) were added to the wells to equal a total volume of 180 µL in the wells. Six repeats of each concentration for each SSA were created each plate. The plates were sealed using parafilm, then incubated at 37 °C in a microplate reader for 20 hours. OD600 endpoint data was used to generate growth curves. […]

[2] = quantitative (Q) 1H NMR spectroscopy, proportion of SSA becoming NMR silent (higher-order aggregates); type: physicochemical
Protocol: To confirm the presence of higher order self-associative structures quantitative (Q) ^1H NMR spectroscopy studies were undertaken at 5.6 mM in D2O 5% EtOH. Here the ^1H NMR resonances attributed to the EtOH are used as an internal standard.
Table S1 – Overview of results of the quantitative (Q) 1H NMR studies for 1, 3, 5, 7 and 9
5.0 % EtOH . Values given in % represent the observed proportion of the SSA that has become
Table S2 – Overview of results of the quantitative (Q) 1H NMR studies for 2, 4, 6, 8 and 10
5.0 % EtOH. Values given in % represent the observed proportion of anion and cation that has

[3] = test system: E. coli NCTC 12923; test: inhibition of bacterial growth, OD600 after 20 h; type: cell-based, Escherichia coli; conditions: SSA 5.0 mM, 2.5% ethanol, negative = enhanced growth
Protocol: as §1, §2, §3, §4, §5, §6, §7, §8

[4] = test system: S. aureus ATCC 9144; test: inhibition of bacterial growth, OD600 after 20 h; type: cell-based, Staphylococcus aureus; conditions: SSA 5.0 mM, 2.5% ethanol, negative = enhanced growth; for inhibition at 5000 µM: Staphylococcus aureus, ATCC9144, 20 h, read-out: Percentage inhibition of bacterial growth, ATCC 9144 (S. aureus)
Protocol: as §1, §2, §3, §4, §5, §6, §7, §8

[5] = test system: E. faecium NCTC 12204; test: inhibition of bacterial growth, OD600 after 20 h; type: cell-based, Enterococcus faecium; conditions: SSA 5.0 mM, 2.5% ethanol, negative = enhanced growth
Protocol: as §1, §2, §3, §4, §5, §6, §7, §8

[6] = protein binding in human plasma by equilibrium dialysis; type: in vitro ADME; conditions: human plasma, 5 µM, 37 °C; for recovery at 6 h, 5 µM / remaining at 6 h, 5 µM / fraction unbound at 6 h, 5 µM: human; for remaining at 6 h, 5 µM / fraction unbound at 6 h, 5 µM: plasma
Protocol: Metabolic stability was assessed in mouse and rat liver microsomes. […] A plasma protein binding assay was performed to assess the extent of compound binding to plasma proteins. This is key as only unbound compound is free to distribute and exert a pharmacological effect. […] To assess the potential for this sub-class of SSAs to be developed as drugs for oral administration, Caco-2 permeability assays were also performed, as a cellular model indicative of human intestinal permeability. […] The […] MS/MS analysis. Samples were analysed using a Shimadzu liquid chromatography system coupled to a Triple Quad 6500+ mass spectrometry (AB Inc.) Separation of compounds was achieved using an HSS T3 column (50 x 2.1 mm) at a temperature of 40 °C and a binary mobile phase gradient at a flow rate of 0.7 mL/min. […] This was ramped to 95 % solvent B at 0.7 minutes, held for 0.5 minutes and then […] returned to initial conditions. Sample analysis was by electrospray ionisation. Protein Binding Measurements in Human Plasma by Using Equilibrium Dialysis Method : The fraction unbound in human plasma (P -KB, Ltd People's hospital of Shandong) were measured using 96-well Equilibrium Dialysis Plate (HTDialysis LLC, Gales Ferry, CT). Human plasma containing 5 μM test compound were dialysed against dialysis buffer (PBS) with initial samples taken to allow for assessment of plasma stability and recovery before the plate was incubated for 6 hours at 37 °C at 5 % CO2. Samples were removed at 6 hours, and all samples […] appropriate analytical internal standard. Samples were centrifuged at 3,220 g for 30 minutes (Eppendorf 5810R) to precipitate protein and enable sampling of supernatant prior to appropriate dilution for liquid chromatography mass -spectrometry (LC-MS/MS) analysis. Samples were analysed using a Shimadzu coupled to a triple Quad 6500 + (AB Inc., Illinois). Separation of analytes was achieved using a Xselect Hss T3 (2.1 x 50 mm) column at a temperature of 40 °C and a binary mobile phase gra dient at a flow rate of 0.8 mL/min. Initial […] formic acid in acetonitrile); this was ramped to 98 % B at 0.5 min, held for 0.4 min and then immediately returned to initial conditions. Sample analysis was by electrospray ionisation in positive ion mode. Bi-directional Permeability in Caco-2 Cell Line: The bi-directional permeability in Caco-2 cell lines was determined by seeding cells onto an HTS Transwell plate. Cells were cultivated for 14-18 days in a cell culture incubator at 37 °C, 5 % CO2, 95 % relative humidity. Cell culture medium was replaced every other day. To assess monolayer integrity the transepithelial electrical resistance (TEER) across the monolayer was measured using Millicell Epithelial volt-ohm meter prior to assay and Lucifer yellow (LY) fluorescence measurement post-assay. Test and control compounds were prepared in DMSO and diluted in Hank's Balanced Saline […] Compound was added to the donor compartment of the transwell plate for both apical to basolateral (A>B) and basolateral to apical (B>A) measurements, with blank HBSS being added to the receiver compartment. The transwell plate was then incubated at 37 °C, 5 % CO2 for 2 hours. 5

[7] = 6 hours, read-out: % Bound (converted)

**Q.** What does the source list for `O=C(O)CC[C@@H](NC(=O)Nc1ccc(C(F)(F)F)cc1)C(=O)O` [SSA 3]?
**A.** inhibition at 5000 µM ([1]; Enterococcus faecalis, NCTC775, 20 h, read-out: Percentage inhibition of bacterial growth, NCTC 775 (E. faecalis)): 98.8%; Percentage inhibition of bacterial growth, NCTC 775 (E. faecalis) ([1]; listed as 3): 99%; (Q) 1H NMR spectroscopy, proportion NMR silent, acid or anion ([2]; 5.6 mM, D2O 5.0% EtOH, 298 K, listed as 3): 34%; (Q) 1H NMR, proportion NMR silent, SSA acid or anion ([2]; ~112 mM, DMSO-d6 1.0% DCM): 0%; Percentage inhibition of bacterial growth, NCTC 12923 (E. coli) ([3]; listed as 3): 59.91% and 60%; Percentage inhibition of bacterial growth, ATCC 9144 (S. aureus) ([4]; listed as 3): 99%; inhibition at 5000 µM [4]: 99.1%; inhibition at 5000 µM ([5]; Enterococcus faecium, NCTC12204, 20 h, read-out: Percentage inhibition of bacterial growth, NCTC 12204 (E. faecium)): 99.4%; Percentage inhibition of bacterial growth, NCTC 12204 (E. faecium) ([5]; listed as 3): 99%; recovery at 6 h, 5 µM ([6]; 6 hours): 99.6%; remaining at 6 h, 5 µM [6]: 102%; fraction unbound at 6 h, 5 µM [6, 7]: 0.23; fraction unbound at 6 h, 5 µM ([6]; 6 hours, read-out: % Unbound): 0.23

**Q.** Which “Percentage inhibition of bacterial growth, NCTC 775 (E. faecalis)” value (“Percentage inhibition … (E. faecalis)” below) [1] does the source give for `O=C(O)CC[C@H](NC(=O)Nc1ccc(C(F)(F)F)cc1)C(=O)O` [SSA 2] here?
**A.** 21.86% and 22%

**Q.** What about the “(Q) 1H NMR spectroscopy, proportion NMR silent, acid or anion” value (“(Q) 1H NMR spectroscopy … acid or anion” for short) ([2]; 5.6 mM, D2O 5.0% EtOH, 298 K) of the same compound?
**A.** 39.8% and ~40%

**Q.** What about the “(Q) 1H NMR spectroscopy, proportion NMR silent, cation” value ([2]; 5.6 mM, D2O 5.0% EtOH, 298 K) of the same compound?
**A.** 36.3% and 36%

**Q.** What about the “(Q) 1H NMR, proportion NMR silent, SSA acid or anion” value ([2]; ~112 mM, DMSO-d6 1.0% DCM) of the same compound?
**A.** 0%

**Q.** And the “(Q) 1H NMR, proportion NMR silent, cation” value ([2]; ~112 mM, DMSO-d6 1.0% DCM)?
**A.** 0%

**Q.** What about the “Percentage inhibition of bacterial growth, NCTC 12923 (E. coli)” value (“Percentage inhibition … (E. coli)” below) [3] of the same compound?
**A.** 6.06% and 6%

**Q.** And the “Percentage inhibition of bacterial growth, ATCC 9144 (S. aureus)” value (“Percentage inhibition … (S. aureus)” for short) [4]?
**A.** 79.71% and 80%

**Q.** What about the “Percentage inhibition of bacterial growth, NCTC 12204 (E. faecium)” value (from here on “Percentage inhibition … (E. faecium)”) [5] of the same compound?
**A.** 66.25% and 66%

**Q.** And the “% Remaining at 6 hr” value [6]?
**A.** 108.64%

**Q.** And the “% Bound” value ([6]; 6 hours)?
**A.** 78.73%

**Q.** What about the “% Recovery” value ([6]; 6 hours) of the same compound?
**A.** 97.50%

**Q.** And the “% Unbound” value ([6]; 6 hours)?
**A.** 21.27%

**Q.** With `O=C(O)CC[C@H](NC(=O)Nc1ccc(C(F)(F)F)cc1)C(=O)O` [SSA 1] as the compound, how does the “Percentage inhibition … (E. faecalis)” value [1] read?
**A.** 98.79% and 99%

**Q.** And the “(Q) 1H NMR spectroscopy … acid or anion” value ([2]; 5.6 mM, D2O 5.0% EtOH, 298 K)?
**A.** 38.5% and 39%

**Q.** And the “(Q) 1H NMR, proportion NMR silent, SSA acid or anion” value ([2]; ~112 mM, DMSO-d6 1.0% DCM)?
**A.** 0%

**Q.** What about the “Percentage inhibition … (E. coli)” value [3] of the same compound?
**A.** 64.03% and 64%

**Q.** And the “Percentage inhibition … (S. aureus)” value [4]?
**A.** 99%

**Q.** And the inhibition at 5000 µM [4]?
**A.** 98.7%

**Q.** And the “Percentage inhibition … (E. faecium)” value [5]?
**A.** 99.02% and 99%

**Q.** What about the recovery at 6 h, 5 µM ([6]; 6 hours) of the same compound?
**A.** 97.3%

**Q.** And the remaining at 6 h, 5 µM [6]?
**A.** 104%

**Q.** What about the fraction unbound at 6 h, 5 µM [6, 7] of the same compound?
**A.** 0.217

**Q.** What about the fraction unbound at 6 h, 5 µM ([6]; 6 hours, read-out: % Unbound) of the same compound?
**A.** 0.217

**Q.** For `O=C(O)CC[C@H](NC(=O)Nc1ccc(Br)cc1)C(=O)O` [SSA 9], which “Percentage inhibition … (E. faecalis)” value ([1]; listed as 9) is on record?
**A.** 20%

**Q.** What about the “(Q) 1H NMR spectroscopy … acid or anion” value ([2]; 5.6 mM, D2O 5.0% EtOH, 298 K, listed as 9) of the same compound?
**A.** 40.9% and 41%

**Q.** What about the “Percentage inhibition … (E. coli)” value ([3]; listed as 9) of the same compound?
**A.** 62.96% and 63%

**Q.** And the “Percentage inhibition … (S. aureus)” value ([4]; listed as 9)?
**A.** 60.74% and 61%

**Q.** And the “Percentage inhibition … (E. faecium)” value ([5]; listed as 9)?
**A.** 44.44% and 44%

**Q.** What about the recovery at 6 h, 5 µM ([6]; 6 hours) of the same compound?
**A.** 94.9%

**Q.** And the remaining at 6 h, 5 µM [6]?
**A.** 106%

**Q.** And the fraction unbound at 6 h, 5 µM [6, 7]?
**A.** 0.166

**Q.** What about the fraction unbound at 6 h, 5 µM ([6]; 6 hours, read-out: % Unbound) of the same compound?
**A.** 0.166
